Results from patent US5455271A, “Tight-binding inhibitors of leukotriene A4 hydrolase” (The Scripps Research Institute, priority 1993, dated 1995).
Entries after “also recorded” stand apart in the source; their conditions may differ. Counter-ions that a name gives are not always drawn. Like-named read-outs stand apart in the source and are kept apart here. Values belong to the compound of their own block, whether it stands above or below them.

Key:
LTA4 hydrolase = molecular target: T1, LTA4 hydrolase (Homo sapiens, UniProt P09960); test: Inhibition of LTA4 hydrolase, amidase (aminopeptidase) activity, L-alanyl p-nitroanilide as substrate; format: biochemical; parameters: LTA4 hydrolase purified from human leukocytes; from tissue; host or cells: human leukocytes (purified enzyme); conditions: for Ki: Dixon plot
T1 sequence (P09960 1-611): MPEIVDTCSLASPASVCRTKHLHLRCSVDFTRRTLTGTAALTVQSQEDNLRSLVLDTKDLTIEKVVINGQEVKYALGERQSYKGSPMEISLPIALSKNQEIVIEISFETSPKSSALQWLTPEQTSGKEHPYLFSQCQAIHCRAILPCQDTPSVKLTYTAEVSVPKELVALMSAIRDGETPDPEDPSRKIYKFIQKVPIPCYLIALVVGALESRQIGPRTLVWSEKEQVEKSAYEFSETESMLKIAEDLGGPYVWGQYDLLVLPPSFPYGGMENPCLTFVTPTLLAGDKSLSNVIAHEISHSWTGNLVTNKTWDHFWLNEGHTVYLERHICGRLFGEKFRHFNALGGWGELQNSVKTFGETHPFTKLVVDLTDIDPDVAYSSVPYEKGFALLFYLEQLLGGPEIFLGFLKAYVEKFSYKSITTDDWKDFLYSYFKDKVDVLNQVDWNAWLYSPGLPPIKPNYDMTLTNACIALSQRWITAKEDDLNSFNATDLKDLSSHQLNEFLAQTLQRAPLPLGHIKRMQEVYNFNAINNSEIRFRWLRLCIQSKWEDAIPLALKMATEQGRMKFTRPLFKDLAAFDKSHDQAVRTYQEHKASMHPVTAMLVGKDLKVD
Procedure: ^a All assays were performed in TrisHCl buffer (0.05 M, pH 8.0) with
Lalanyl pnitroanilide (1.5 mM) as substrate unless otherwise indicated.
for each assay (final volume = 1.0 mL). pNitroaniline formation was
monitored spectrophotometrically at 405 nm. Thiol compounds were assayed
in the presence of 5 mM DTT. The values shown are within ± 5 percent
accuracy. Dixon plot was used to determine the Ki values.

Thromboxane B2 (TXB2) = test: Inhibition of thromboxane B2 (TXB2) in calcium ionophore A-23187-stimulated human blood; format: cell-based; conditions: read-out: % Inhibition TXB2; for inhibition at 1 µM: Table 3, 1 μM; for inhibition at 3 µM: Table 3, 3 μM
Procedure: (§1) Blood was drawn from a human volunteer, and a compound solution at one of three concentrations (Table 3) or a single concentration (Table 4), or solution alone (vehicle) was added to a one ml aliquot of the blood. After incubation for 15 minutes, 14 μg of calcium ionophore A-23187 (as the free acid) was added, and the incubation continued for another 15 minutes. The reactions were stopped by immersion of the containers into slush ice, and the samples were centrifuged at 11,000 ×g to pellet red cells and leukocytes. An aliquot of the plasma was then assayed for the presence of thromboxane B2 or leukotriene B4 by standard radioimmunoassay techniques.

Leukotriene B4 (LTB4) = test: Inhibition of leukotriene B4 (LTB4) in calcium ionophore A-23187-stimulated human blood; format: cell-based; conditions: Homo sapiens
Procedure: as §1

[1] = Table 3, read-out: % Inhibition LTB4
[2] = L-alanyl p-nitroanilide 1.5 mM, pH 8.0, thiols with 5 mM DTT
[3] = Table 4, read-out: % Inhibition LTB4
[4] = L-alanyl p-nitroanilide 1.5 mM, pH 8.0

Structure (SMILES): COC(=O)[C@@H](O)[C@H](N)Cc1ccccc1 [Compound 3, (2S, 3R)-AHPA methyl ester]
inhibition of LTA4 hydrolase (in words) (LTA4 hydrolase): poor or no inhibition; also recorded: exhibited no activity

Structure (SMILES): COC(=O)C(S)[C@@H](N)Cc1ccccc1 (stereo partly drawn) [Compound 11]
inhibition of LTA4 hydrolase (in words) (LTA4 hydrolase): poor inhibitors

Structure (SMILES): N[C@@H](Cc1ccccc1)[C@H](O)C(=O)O [Compound 5, (2S,3S)-AHPA]
inhibition of LTA4 hydrolase (in words) (LTA4 hydrolase): loss of their inhibition potency

Structure (SMILES): N[C@H](Cc1ccccc1)[C@H](O)C(=O)O [Compound 6, (2S,3R)-AHPA]
inhibition of LTA4 hydrolase (in words) (LTA4 hydrolase): loss of their inhibition potency

Structure (SMILES): NC(CSSCC(N)Cc1ccc(OCc2ccccc2)cc1)Cc1ccc(OCc2ccccc2)cc1 [Compound 27a, Di-((2S)-3-[4-(benzyloxy)phenyl]-2-amino-propane)-disulphide HCl]
inhibition at 10 µM (Thromboxane B2 (TXB2); Table 4, 10 μM): 24% | inhibition at 10 µM (Leukotriene B4 (LTB4); [3]): 100% | IC50 (Leukotriene B4 (LTB4); concentrations of about 0.3-10 μM, readout not restated, read-out: IC50 in this assay (human blood)): ~0.81 µM

Structure (SMILES): N[C@@H](Cc1ccc(OCc2ccccc2)cc1)C(=O)CCCc1ccccc1 [Compound 54, (2S)-1-[4-(Benzyloxy)phenyl]-6-phenyl-2-amino-3-oxo-hexane HCl]
IC50 (LTA4 hydrolase; [4]): 0.03 µM

Structure (SMILES): NC[C@@H](N)Cc1ccc(OCc2ccc3ccccc3c2)cc1 [Compound 60, (2S) -3-[4-(2-Naphthylmethyloxy)phenyl]-1,2-diamino-propane HCl]
IC50 (LTA4 hydrolase; [2]): 0.55 µM

Structure (SMILES): COC(=O)[C@@H](O)[C@@H](N)Cc1ccccc1 [Compound 2, (2S, 3S)-AHPA methyl ester]
Ki (LTA4 hydrolase; [4]): 50 µM

Structure (SMILES): N[C@H](Cc1ccccc1)[C@H](O)C(=O)NCCC(=O)O [Compound 9]
IC50 (LTA4 hydrolase; [2]): 100 µM

Structure (SMILES): COC(=O)[C@@H](O)[C@H](Cc1ccccc1)NC(=O)OC(C)(C)C [N-Boc-2S, 3S)-AHPA methyl ester, N-Boc-(2S, 3S) -AHPA methyl ester]
inhibition of LTA4 hydrolase (in words) (LTA4 hydrolase): no inhibition activity

Structure (SMILES): CC(C)C[C@H](NC(=O)[C@@H](O)[C@@H](N)Cc1ccccc1)C(=O)O [Compound 7, (2S, 3S)-AHPA-L-Leu]
inhibition at 1 µM (Thromboxane B2 (TXB2)): 21% | inhibition at 3 µM (Thromboxane B2 (TXB2)): 15% | inhibition at 10 µM (Thromboxane B2 (TXB2); Table 3, 10 μM): 24% | inhibition at 10 µM (Thromboxane B2 (TXB2); Table 4, 10 μM): 0% | inhibition at 3 µM (Leukotriene B4 (LTB4); [1]): 10% | inhibition at 10 µM (Leukotriene B4 (LTB4); [1]): 37% | inhibition at 10 µM (Leukotriene B4 (LTB4); [3]): 25%

Structure (SMILES): COC(=O)[C@H](O)[C@H](N)Cc1ccccc1 [Compound 4, (2R, 3R)-AHPA methyl ester]
inhibition of LTA4 hydrolase (in words) (LTA4 hydrolase): poor or no inhibition

Structure (SMILES): COC(=O)C(S)[C@H](N)Cc1ccccc1 (stereo partly drawn) [Compound 12]
inhibition of LTA4 hydrolase (in words) (LTA4 hydrolase): poor inhibitors

Structure (SMILES): N[C@@H](Cc1ccccc1)[C@H](O)C(=O)NCC(=O)O [Compound 8, (2S, 3S) -AHPA-Gly]
Ki (LTA4 hydrolase; [4]): 15 µM | IC50 (LTA4 hydrolase; [2]): 15 µM

Structure (SMILES): CCOC(=O)C(F)(F)C(=O)c1nc[nH]c1C [Compound 18]
inhibition of the enzyme at 1 mM concentration (in words) (LTA4 hydrolase): did not inhibit the enzyme | IC50 (LTA4 hydrolase; footnote d: less than 10 percent inhibition was observed at this concentration): > 1000 µM

Second part, led by results:

inhibition of LTA4 hydrolase (in words) (LTA4 hydrolase): a much weaker inhibitor than Compound 8
Structure (SMILES): NC(Cc1ccccc1)P(=O)(O)NCC(=O)O (stereo not drawn) [Compound 16]

IC50 (LTA4 hydrolase; [2]): 80 µM
Structure (SMILES): N[C@@H](Cc1ccccc1)[C@H](O)C(=O)NCCC(=O)O [Compound 10, (2S, 3S) -AHPA-β-Ala]
inhibition at 1 µM (Thromboxane B2 (TXB2)): 12% | inhibition at 3 µM (Thromboxane B2 (TXB2)): 21% | inhibition at 10 µM (Thromboxane B2 (TXB2); Table 3, 10 μM): 19% | inhibition at 1 µM (Leukotriene B4 (LTB4); Table 3, 1 μM, read-out: % Inhibition LTB4): 14% | inhibition at 3 µM (Leukotriene B4 (LTB4); [1]): 39% | inhibition at 10 µM (Leukotriene B4 (LTB4); [1]): 15%

inhibition of LTA4 hydrolase (in words) (LTA4 hydrolase): poor or no inhibition
Structure (SMILES): COC(=O)[C@H](O)[C@@H](N)Cc1ccccc1 [Compound 1, (2R, 3S)-AHPA methyl ester]

IC50 (LTA4 hydrolase; [2]): 20 µM
Structure (SMILES): COC(=O)[C@@H](O)[C@@H](N)Cc1ccc(OCc2ccccc2)cc1 [Compound 23]

IC50 (LTA4 hydrolase; [2]): 140 µM
Structure (SMILES): N[C@@H](Cc1ccccc1)[C@H](O)Cc1ccccc1 [Compound 44, (2R, 3S)-1,4-Diphenyl-2-hydroxy-3-amino-butane HCl]

IC50 (LTA4 hydrolase; [2]): 0.5 µM
Structure (SMILES): CC(C)C[C@H](NC(=O)C(=O)[C@@H](N)Cc1ccccc1)C(=O)O [Compound 22]
inhibition of LTA4 hydrolase (in words) (LTA4 hydrolase): better than the corresponding α-(S)--OH derivative Compound 7

inhibition of the enzyme at 1 mM concentration (in words) (LTA4 hydrolase): did not inhibit the enzyme
Structure (SMILES): CCOC(=O)CC(F)(F)C(=O)/C=C/c1ccccc1 [Compound 17]
